{"source": "patent US5837687A", "about": "“Azapeptide derivative” (Fujirebio Inc., priority 1994, dated 1998)", "data": [{"molecular_target": "T1, NKA receptor (Mesocricetus auratus, UniProt P51144)", "T1 construct": "from tissue; host or cells: hamster respiratory tract (trachea) ring specimens", "T1 sequence (P51144 1-384)": "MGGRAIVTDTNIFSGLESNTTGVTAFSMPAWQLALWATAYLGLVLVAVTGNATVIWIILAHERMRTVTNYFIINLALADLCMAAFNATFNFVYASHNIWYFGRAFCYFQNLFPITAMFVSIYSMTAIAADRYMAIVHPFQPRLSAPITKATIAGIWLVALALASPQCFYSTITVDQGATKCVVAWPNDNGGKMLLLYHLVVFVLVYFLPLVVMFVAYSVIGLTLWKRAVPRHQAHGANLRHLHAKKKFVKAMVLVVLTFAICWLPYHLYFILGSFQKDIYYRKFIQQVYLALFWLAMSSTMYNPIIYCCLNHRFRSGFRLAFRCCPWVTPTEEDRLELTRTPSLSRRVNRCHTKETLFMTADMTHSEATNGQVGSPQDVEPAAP", "experiment": "Activity to constriction of hamster respiratory tracts caused by NKA (isolated tissue, tension)", "format": "cell-based", "experimental": "The activity of the azapeptide derivative of the present invention to a NKA receptor was evaluated by the following method.\n(1) Activity to constriction of hamster respiratory tracts caused by NKA\nRespiratory tracts were taken out from male Syrian strain Golden hamsters having a body weight of 100 to 180 g, and cyclic specimens having a width of 3 to 6 mm were prepared. The specimens were incubated at 37° C. and suspended by loading a static tension of 0.5 g, in a reaction tank charged with 15 ml of a Tyrode solution (137 mM of NaCl, 2.7 mM of KCl, 1.8 mM of CaCl2, 1.02 mM of MgCl2, 11.9 mM of NaHCO3, 0.42 mM of NaH2 PO4 and 5.5 mM of glucose) in which 95% O2 -5% CO2 had been passed.\nThe compound to be tested was charged into the reaction tank and maintained for 5 minutes. 1×10^-7 M of NKA was charged into the reaction tank, and tension caused thereby was recorded. The examined effect of the tested compound as an antagonist was shown by IC50.", "units": {"IC50": "nM"}, "values": [{"smiles": "CC(C)(C)OC(=O)N[C@@H](CC(=O)OCc1ccccc1)C(=O)N[C@@H](CCC(N)=O)C(=O)N[C@@H](Cc1c[nH]c2ccccc12)C(=O)NN(Cc1ccccc1)C(N)=O", "note": "[Example 1 (3), Boc-Asp(OBzl)-Gln-Trp-AzPhe-NH2]", "IC50": 45}, {"smiles": "CC(C)(C)OC(=O)N[C@@H](Cc1c[nH]c2ccccc12)C(=O)NN(Cc1ccccc1)C(=O)NCCOCc1ccccc1", "note": "[Example 2 (1), Boc-Trp-AzPhe-NH(CH2)2 OCH2 Ph]", "IC50": 310}, {"smiles": "CC(C)(C)OC(=O)N[C@@H](CCC(N)=O)C(=O)N[C@@H](Cc1c[nH]c2ccccc12)C(=O)NN(Cc1ccccc1)C(=O)NCCOCc1ccccc1", "note": "[Example 2 (2), Boc-Gln-Trp-AzPhe-NH(CH2)2 OCH2 Ph]", "IC50": 0.66}, {"smiles": "CC(C)(C)OC(=O)N[C@@H](CC(=O)OCc1ccccc1)C(=O)N[C@@H](CCC(N)=O)C(=O)N[C@@H](Cc1c[nH]c2ccccc12)C(=O)NN(Cc1ccccc1)C(=O)NCCOCc1ccccc1", "note": "[Example 2 (3), Boc-Asp(OBzl)-Gln-Trp-AzPhe-NH(CH2)2 OCH2 Ph]", "IC50": 1.9}, {"smiles": "CC(C)CCC(=O)N[C@@H](CCC(N)=O)C(=O)N[C@@H](Cc1c[nH]c2ccccc12)C(=O)NN(Cc1ccccc1)C(=O)NCCOCc1ccccc1", "note": "[Example 3, i-Pent-CO-Gln-Trp-AzPhe-NH(CH2)2 OCH2 Ph]", "IC50": 0.6}, {"smiles": "NC(=O)CC[C@H](NC(=O)c1ccccc1)C(=O)N[C@@H](Cc1c[nH]c2ccccc12)C(=O)NN(Cc1ccccc1)C(=O)NCCOCc1ccccc1", "note": "[Example 4, Bz-Gln-Trp-AzPhe-NH(CH2)2 OCH2 Ph]", "IC50": 2.3}, {"smiles": "NC(=O)CC[C@H](NC(=O)C1CCCC1)C(=O)N[C@@H](Cc1c[nH]c2ccccc12)C(=O)NN(Cc1ccccc1)C(=O)NCCOCc1ccccc1", "note": "[Example 5, cyPent-CO-Gln-Trp-AzPhe-NH(CH2)2 OCH2 Ph]", "IC50": 2.2}, {"smiles": "CC(C)(C)NC(=O)N[C@@H](CCC(N)=O)C(=O)N[C@@H](Cc1c[nH]c2ccccc12)C(=O)NN(Cc1ccccc1)C(=O)NCCOCc1ccccc1", "note": "[Example 6, t-Bu-NHCO-Gln-Trp-AzPhe-NH(CH2)2 OCH2 Ph]", "IC50": 0.6}, {"smiles": "CC(C)CCNC(=O)N[C@@H](CCC(N)=O)C(=O)N[C@@H](Cc1c[nH]c2ccccc12)C(=O)NN(Cc1ccccc1)C(=O)NCCOCc1ccccc1", "note": "[Example 7, i-Pent-NHCO-Gln-Trp-AzPhe-NH(CH2)2OCH2 Ph]", "IC50": 0.5}, {"smiles": "NC(=O)CC[C@H](NC(=O)NC1CCCC1)C(=O)N[C@@H](Cc1c[nH]c2ccccc12)C(=O)NN(Cc1ccccc1)C(=O)NCCOCc1ccccc1", "note": "[Example 8, cyPent-NHCO-Gln-Trp-AzPhe-NH (CH2)2 OCH2 Ph]", "IC50": 0.7}, {"smiles": "CC(C)(C)OC(=O)N[C@@H](CCS(C)(=O)=O)C(=O)N[C@@H](Cc1c[nH]c2ccccc12)C(=O)NN(Cc1ccccc1)C(=O)NCCOCc1ccccc1", "note": "[Example 9, Boc-Met(O2)-Trp-AzPhe-NH (CH2)2 OCH2 Ph]", "IC50": 1.4}, {"smiles": "CC(C)(C)OC(=O)N[C@@H](CC(N)=O)C(=O)N[C@@H](Cc1c[nH]c2ccccc12)C(=O)NN(Cc1ccccc1)C(=O)NCCOCc1ccccc1", "note": "[Example 10, Boc-Asn-Trp-AzPhe-NH(CH2)2 OCH2 Ph]", "IC50": 6.8}, {"smiles": "CSCC[C@H](NC(=O)OC(C)(C)C)C(=O)N[C@@H](Cc1c[nH]c2ccccc12)C(=O)NN(Cc1ccccc1)C(=O)NCCOCc1ccccc1", "note": "[Example 11, Boc-Met-Trp-AzPhe-NH(CH2)2 OCH2 Ph]", "IC50": 8.9}, {"smiles": "CC(C)(C)OC(=O)N[C@@H](CCCNC(=O)OCc1ccccc1)C(=O)N[C@@H](Cc1c[nH]c2ccccc12)C(=O)NN(Cc1ccccc1)C(=O)NCCOCc1ccccc1", "note": "[Example 13 (1), Boc-Orn(Z)-Trp-AzPhe-NH (CH2)2 OCH2 Ph]", "IC50": 80}, {"smiles": "CC(C)(C)OC(=O)N[C@@H](CCCN)C(=O)N[C@@H](Cc1c[nH]c2ccccc12)C(=O)NN(Cc1ccccc1)C(=O)NCCOCc1ccccc1", "note": "[Example 13 (2), Boc-Orn-Trp-AzPhe-NH(CH2)2 OCH2 Ph]", "IC50": 78}, {"smiles": "CC(C)(C)OC(=O)N[C@@H](CCCNC(N)=O)C(=O)N[C@@H](Cc1c[nH]c2ccccc12)C(=O)NN(Cc1ccccc1)C(=O)NCCOCc1ccccc1", "note": "[Example 14, Boc-Cit-Trp-AzPhe-NH(CH2)2 OCH2 Ph]", "IC50": 24}, {"smiles": "CC(C)(C)OC(=O)N[C@@H](CCCNC(=N)N[N+](=O)[O-])C(=O)N[C@@H](Cc1c[nH]c2ccccc12)C(=O)NN(Cc1ccccc1)C(=O)NCCOCc1ccccc1", "note": "[Example 15, Boc-Arg(NO2)-Trp-AzPhe-NH(CH2)2 OCH2 Ph]", "IC50": 35}, {"smiles": "CC(C)(C)OC(=O)N[C@@H](CC(=O)OCc1ccccc1)C(=O)N[C@@H](Cc1c[nH]c2ccccc12)C(=O)NN(Cc1ccccc1)C(=O)NCCOCc1ccccc1", "note": "[Example 16 (1), Boc-Asp(OBzl)-Trp-AzPhe-NH(CH2)2 OCH2 Ph]", "IC50": 13}, {"smiles": "CC(C)(C)OC(=O)N[C@@H](CC(=O)O)C(=O)N[C@@H](Cc1c[nH]c2ccccc12)C(=O)NN(Cc1ccccc1)C(=O)NCCOCc1ccccc1", "note": "[Example 16 (2), Boc-Asp-Trp-AzPhe-NH(CH2)2 OCH2 Ph]", "IC50": 13}, {"smiles": "CC(C)(C)OC(=O)N[C@@H](CCC(N)=O)C(=O)N[C@@H](Cc1c[nH]c2ccccc12)C(=O)NN(Cc1ccccc1)C(=O)NCc1ccc(F)cc1", "note": "[Example 17 (2), Boc-Gln-Trp-AzPhe-NHCH2 Ph(4-F)]", "IC50": 29}, {"smiles": "CC(C)(C)OC(=O)N[C@@H](CC(=O)OCc1ccccc1)C(=O)N[C@@H](CCC(N)=O)C(=O)N[C@@H](Cc1c[nH]c2ccccc12)C(=O)NN(Cc1ccccc1)C(=O)NCc1ccc(F)cc1", "note": "[Example 17 (3), Boc-Asp(OBzl)-Gln-Trp-AzPhe-NHCH2 Ph(4-F)]", "IC50": 4.2}, {"smiles": "CC(C)(C)OC(=O)N[C@@H](CCC(N)=O)C(=O)N[C@@H](Cc1c[nH]c2ccccc12)C(=O)NN(Cc1ccccc1)C(=O)NCCOCc1ccc(F)cc1", "note": "[Example 18 (2), Boc-Gln-Trp-AzPhe-NH(CH2)2 OCH2 Ph(4-F)]", "IC50": 5.6}, {"smiles": "CC(C)(C)OC(=O)N[C@@H](CC(=O)OCc1ccccc1)C(=O)N[C@@H](CCC(N)=O)C(=O)N[C@@H](Cc1c[nH]c2ccccc12)C(=O)NN(Cc1ccccc1)C(=O)NCCc1ccccc1", "note": "[Example 19 (3), Boc-Asp(OBzl)-Gln-Trp-AzPhe-NH(CH2)2 Ph]", "IC50": 5.3}, {"smiles": "CC(C)(C)OC(=O)N[C@@H](CC(=O)OCc1ccccc1)C(=O)N[C@@H](CCC(N)=O)C(=O)N[C@@H](Cc1c[nH]c2ccccc12)C(=O)NN(Cc1ccccc1)C(=O)NCc1ccccc1", "note": "[Example 20 (3), Boc-Asp(OBzl)-Gln-Trp-AzPhe-NHCH2 Ph]", "IC50": 1.7}, {"smiles": "CC(C)CCC(=O)N[C@@H](CC(=O)OCc1ccccc1)C(=O)N[C@@H](CCC(N)=O)C(=O)N[C@@H](Cc1c[nH]c2ccccc12)C(=O)NN(Cc1ccccc1)C(=O)NCc1ccccc1", "note": "[Example 21, i-Pent-CO-Asp(OBzl)-Gln-Trp-AzPhe-NHCH2 Ph]", "IC50": 1.7}, {"smiles": "COc1ccc(CNC(=O)N(Cc2ccccc2)NC(=O)[C@H](Cc2c[nH]c3ccccc23)NC(=O)[C@H](CCC(N)=O)NC(=O)[C@H](CC(=O)OCc2ccccc2)NC(=O)OC(C)(C)C)c(OC)c1", "note": "[Example 22, Boc-Asp(OBzl)-Gln-Trp-AzPhe-NHDmob]", "IC50": 4900}, {"smiles": "CNC(=O)N(Cc1ccccc1)NC(=O)[C@H](Cc1c[nH]c2ccccc12)NC(=O)[C@H](CCC(N)=O)NC(=O)[C@H](CC(=O)OCc1ccccc1)NC(=O)OC(C)(C)C", "note": "[Example 23 (3), Boc-Asp(OBzl)-Gln-Trp-AzPhe-NHCH3]", "IC50": 78}, {"smiles": "CC(C)(C)OC(=O)N[C@@H](CC(=O)OCc1ccccc1)C(=O)N[C@@H](CCC(N)=O)C(=O)N[C@@H](Cc1c[nH]c2ccccc12)C(=O)NN(Cc1ccccc1)C(=O)NCCO", "note": "[Example 24 (2), Boc-Asp(OBzl)-Gln-Trp-AzPhe-NH(CH2)2 OH]", "IC50": 46}, {"smiles": "CC(C)CNC(=O)N(Cc1ccccc1)NC(=O)[C@H](Cc1c[nH]c2ccccc12)NC(=O)[C@H](CCC(N)=O)NC(=O)[C@H](CC(=O)OCc1ccccc1)NC(=O)OC(C)(C)C", "note": "[Example 25 (3), Boc-Asp(OBzl)-Gln-Trp-AzPhe-NHCH2 CH(CH3)2]", "IC50": 34}, {"smiles": "CC(C)(C)OC(=O)N[C@@H](CC(=O)OCc1ccccc1)C(=O)N[C@@H](CCC(N)=O)C(=O)N[C@@H](Cc1c[nH]c2ccccc12)C(=O)NN(Cc1ccccc1)C(=O)N1CCOCC1", "note": "[Example 26 (3), Boc-Asp(OBzl)-Gln-Trp-AzPhe-M]", "IC50": 830}, {"smiles": "CC(C)(C)OC(=O)N[C@@H](CC(=O)OCc1ccccc1)C(=O)N[C@@H](CCC(N)=O)C(=O)N[C@H](Cc1c[nH]c2ccccc12)C(=O)NN(Cc1ccccc1)C(N)=O", "note": "[Example 27 (3), Boc-Asp(OBzl)-Gln-D-Trp-AzPhe-NH2]", "IC50": 990}, {"smiles": "CC(C)(C)OC(=O)N[C@@H](CC(=O)OCc1ccccc1)C(=O)N[C@@H](CCC(N)=O)C(=O)N[C@@H](Cc1c[nH]c2ccccc12)C(=O)NN(Cc1ccccc1)C(=O)OCc1ccccc1", "note": "[Example 28 (3), Boc-Asp(OBzl)-Gln-Trp-AzPhe-OBzl]", "IC50": 27}, {"smiles": "CC(C)(C)OC(=O)N[C@@H](CC(=O)OCc1ccccc1)C(=O)N[C@@H](CCC(N)=O)C(=O)N[C@@H](Cc1c[nH]c2ccccc12)C(=O)NN(Cc1ccccc1)C(=O)Nc1ccccc1", "note": "[Example 29 (3, Boc-Asp(OBzl)-Gln-Trp-AzPhe-NHPh]", "IC50": 190}]}]}
